In ChEMBL document CHEMBL6114955, “Probing into the plasma stability and microsomal stability of thiol-based prodrug derivatives: Using IYS-15, an HDAC inhibitor as the model thiol” (Bioorg Med Chem, 2025):

Experiments:
[1] = Stability in human plasma assessed as half life at pH 7.4 measured upto 5 hrs by LC-MS/MS analysis; format: ADME, cell-free
[2] = Metabolic stability in human liver microsomes assessed as half life in presence of NADPH measured upto 60 mins by LC-MS/MS analysis; format: ADME, Microsome
[3] = Metabolic stability in human liver microsomes assessed as half life in presence of NADPH measured upto 60 mins in presence of 5 mM BNPP carboxylesterase inhibitor by LC-MS/MS analysis; format: ADME, Microsome; conditions: with BNPP (carboxylesterase inhibitor)
[4] = Metabolic stability in human liver microsomes assessed as half life in presence of NADPH measured upto 60 mins in presence of 2.5 mM ABT cytochrome P450 inhibitor by LC-MS/MS analysis; format: ADME, Microsome; conditions: with ABT (cytochrome P450 inhibitor)
[5] = Metabolic stability in human liver microsomes assessed as half life in presence of NADPH measured upto 60 mins in presence of 50 uM furafylline by LC-MS/MS analysis; format: ADME, Microsome; conditions: with furafylline
[6] = Metabolic stability in human liver microsomes assessed as half life in presence of NADPH measured upto 60 mins in presence of 10 uM montelukast by LC-MS/MS analysis; format: ADME, Microsome; conditions: with montelukast
[7] = Metabolic stability in human liver microsomes assessed as half life in presence of NADPH measured upto 60 mins in presence of 10 uM sulfaphenazole by LC-MS/MS analysis; format: ADME, Microsome; conditions: with sulfaphenazole
[8] = Metabolic stability in human liver microsomes assessed as half life in presence of NADPH measured upto 60 mins in presence of 8 uM quinidine by LC-MS/MS analysis; format: ADME, Microsome; conditions: with quinidine
[9] = Metabolic stability in human liver microsomes assessed as half life in presence of NADPH measured upto 60 mins in presence of 2 uM ketoconazole by LC-MS/MS analysis; format: ADME, Microsome; conditions: with ketoconazole
[10] = Metabolic stability in human liver microsomes assessed as half life in presence of NADPH measured upto 60 mins in presence of 2 uM ticlopidine by LC-MS/MS analysis; format: ADME, Microsome; conditions: with ticlopidine
[11] = Metabolic stability in human liver microsomes assessed as intrinsic clearance measured per mg of protein in presence of NADPH measured upto 60 mins in presence of 50 uM furafylline by LC-MS/MS analysis; format: ADME, Microsome; conditions: 1 h
[12] = Metabolic stability in human liver microsomes assessed as intrinsic clearance measured per mg of protein in presence of NADPH measured upto 60 mins in presence of 10 uM montelukast by LC-MS/MS analysis; format: ADME, Microsome; conditions: 1 h
[13] = Metabolic stability in human liver microsomes assessed as intrinsic clearance measured per mg of protein in presence of NADPH measured upto 60 mins in presence of 10 uM sulfaphenazole by LC-MS/MS analysis; format: ADME, Microsome; conditions: 1 h
[14] = Metabolic stability in human liver microsomes assessed as intrinsic clearance measured per mg of protein in presence of NADPH measured upto 60 mins in presence of 8 uM quinidine by LC-MS/MS analysis; format: ADME, Microsome; conditions: 1 h
[15] = Metabolic stability in human liver microsomes assessed as intrinsic clearance measured per mg of protein in presence of NADPH measured upto 60 mins in presence of 2 uM ketoconazole by LC-MS/MS analysis; format: ADME, Microsome; conditions: 1 h
[16] = Metabolic stability in human liver microsomes assessed as intrinsic clearance measured per mg of protein in presence of NADPH measured upto 60 mins in presence of 2 uM ticlopidine by LC-MS/MS analysis; format: ADME, Microsome; conditions: 1 h
[17] = Ratio of half life in human liver microsomes in presence of BNPP to t1/2 in human liver microsomes absence of BNPP; format: ADME, Microsome
[18] = Ratio of half life in human liver microsomes in presence of ABT to t1/2 in human liver microsomes absence of ABT; format: ADME, Microsome

Row | Compound | half-life [1] [min] | half-life [2] [min] | half-life [3] [min] | half-life [4] [min] | half-life [5] [min] | half-life [6] [min] | half-life [7] [min] | half-life [8] [min] | half-life [9] [min] | half-life [10] [min] | CLint [11] [µL/min/mg] | CLint [12] [µL/min/mg] | CLint [13] [µL/min/mg] | CLint [14] [µL/min/mg] | CLint [15] [µL/min/mg] | CLint [16] [µL/min/mg] | Ratio [17] | Ratio [18]
1 | O=C(CCCCCCSSC1CCCCC1)Nc1nc(-c2ccc(F)cc2)cs1 | > 300 | 18.9 | – | – | – | – | – | – | – | – | – | – | – | – | – | – | – | –
2 | CC(C)(C)C(=O)SCCCCCCC(=O)Nc1nc(-c2ccc(F)cc2)cs1 | > 300 | 4.11 | – | – | – | – | – | – | – | – | – | – | – | – | – | – | – | –
3 | CCCCCNC(=O)SCCCCCCC(=O)Nc1nc(-c2ccc(F)cc2)cs1 | > 300 | 5.5 | – | – | – | – | – | – | – | – | – | – | – | – | – | – | – | –
4 | CC(C)(C)C(=O)NCSCCCCCCC(=O)Nc1nc(-c2ccc(F)cc2)cs1 | > 300 | 1.75 | 27.6 | 211 | 1.41 | 1.84 | 1.41 | 1.43 | 28.5 | 1.38 | 1490 | 1140 | 1490 | 1470 | 74 | 1520 | 13.27 | 101.23
5 | O=C(CCCCCCSSCCCCCCC(=O)Nc1nc(-c2ccc(F)cc2)cs1)Nc1nc(-c2ccc(F)cc2)cs1 | 247 | – | – | – | – | – | – | – | – | – | – | – | – | – | – | – | – | –
6 | CC(C)(C)SSCCCCCCC(=O)Nc1nc(-c2ccc(F)cc2)cs1 | > 300 | 12.5 | 15.8 | 26.7 | – | – | – | – | – | – | – | – | – | – | – | – | 1.26 | 2.13
7 | CN(C)C(=O)SCCCCCCC(=O)Nc1nc(-c2ccc(F)cc2)cs1 | > 300 | 3.09 | 22.8 | 114 | 2.98 | 5.76 | 2.94 | 3.11 | 5.99 | 2.85 | 708 | 365 | 716 | 675 | 351 | 737 | 5.32 | 26.54
8 | O=C(CCCCCCSC(=O)N1CCCC1)Nc1nc(-c2ccc(F)cc2)cs1 | > 300 | 11.4 | – | – | – | – | – | – | – | – | – | – | – | – | – | – | – | –
9 | CCOP(=O)(OCC)SCCCCCCC(=O)Nc1nc(-c2ccc(F)cc2)cs1 | > 300 | 2.14 | 54.5 | 24.5 | – | – | – | – | – | – | – | – | – | – | – | – | 18.22 | 8.2
10 | O=C(CCCCCCSC(=O)Cc1ccccc1)Nc1nc(-c2ccc(F)cc2)cs1 | > 160 | 2.14 | – | – | – | – | – | – | – | – | – | – | – | – | – | – | – | –
11 | COC(=O)SCCCCCCC(=O)Nc1nc(-c2ccc(F)cc2)cs1 | > 300 | 0.79 | 28.2 | 0.85 | – | – | – | – | – | – | – | – | – | – | – | – | 35.87 | 1.09
12 | O=C(CCCCCCSC(=O)c1ccc2c(c1)OCCO2)Nc1nc(-c2ccc(F)cc2)cs1 | > 300 | 11.4 | – | – | – | – | – | – | – | – | – | – | – | – | – | – | – | –
13 | O=C(CCCCCCSC(=O)c1ccc(C(F)(F)F)cc1)Nc1nc(-c2ccc(F)cc2)cs1 | > 300 | 5.77 | 14.5 | 3.82 | – | – | – | – | – | – | – | – | – | – | – | – | 2.52 | 0.66
14 | O=C(CCCCCCSP(=O)(c1ccccc1)c1ccccc1)Nc1nc(-c2ccc(F)cc2)cs1 | > 300 | 0.92 | 24.5 | 34.2 | – | – | – | – | – | – | – | – | – | – | – | – | 26.7 | 37.24
15 | COc1ccc(C(=O)SCCCCCCC(=O)Nc2nc(-c3ccc(F)cc3)cs2)cc1 | > 300 | 10.8 | – | – | – | – | – | – | – | – | – | – | – | – | – | – | – | –
16 | CC(C)N(C(=O)SCCCCCCC(=O)Nc1nc(-c2ccc(F)cc2)cs1)C(C)C | > 300 | 1.27 | 17.1 | 81.1 | 1.52 | 1.25 | 1.53 | 1.15 | 31.5 | 1.39 | 1380 | 1680 | 1370 | 1840 | 67 | 1520 | 2.03 | 9.6
17 | COP(=O)(OC)SCCCCCCC(=O)Nc1nc(-c2ccc(F)cc2)cs1 | > 300 | 9.85 | 165 | 44 | – | – | – | – | – | – | – | – | – | – | – | – | 16.8 | 4.46
18 | CCCCSSCCCCCCC(=O)Nc1nc(-c2ccc(F)cc2)cs1 | > 300 | 6.08 | 10.1 | 16.9 | – | – | – | – | – | – | – | – | – | – | – | – | 1.66 | 2.78
19 | CC(=O)SCCCCCCC(=O)Nc1nc(-c2ccc(F)cc2)cs1 | 151 | 0.57 | 5.78 | 0.53 | – | – | – | – | – | – | – | – | – | – | – | – | 10.1 | 0.93
20 | O=C(CCCCCCSC(=O)c1ccccc1)Nc1nc(-c2ccc(F)cc2)cs1 | > 300 | 2.34 | 36.3 | 5.78 | – | – | – | – | – | – | – | – | – | – | – | – | 4.63 | 0.74
21 | CC(=O)NCSCCCCCCC(=O)Nc1nc(-c2ccc(F)cc2)cs1 | > 300 | 6.81 | 81.4 | 65.8 | 8.31 | 14 | 9.66 | 8.68 | 22.5 | 8.09 | 253 | 150 | 218 | 243 | 93 | 260 | 9.53 | 7.71
22 | CCCCC(=O)SCCCCCCC(=O)Nc1nc(-c2ccc(F)cc2)cs1 | 179 | – | – | – | – | – | – | – | – | – | – | – | – | – | – | – | – | –
23 | CCCCCCSSCCCCCCC(=O)Nc1nc(-c2ccc(F)cc2)cs1 | > 300 | 11.9 | – | – | – | – | – | – | – | – | – | – | – | – | – | – | – | –
24 | CCC(=O)SCCCCCCC(=O)Nc1nc(-c2ccc(F)cc2)cs1 | 160 | 1.17 | 9.11 | 0.56 | – | – | – | – | – | – | – | – | – | – | – | – | 7.77 | 0.48
25 | CNC(=O)SCCCCCCC(=O)Nc1nc(-c2ccc(F)cc2)cs1 | > 300 | 4.81 | 54.9 | 68.3 | 7.1 | 10.4 | 7.61 | 7.28 | 18.2 | 7.42 | 296 | 203 | 276 | 288 | 115 | 283 | 8.53 | 10.62
